From patent US10106504B2, “Pyridin-3-yl acetic acid derivatives as inhibitors of human immunodeficiency virus replication” (priority 2015, dated 2018) come the findings set out here.

The test system of this assay is NL-RLuc virus. Nature of the assay: Inhibition of HIV replication (NL-RLuc virus, luciferase readout in MT-2 cells). It is filed as cell-based. The note with it: Human immunodeficiency virus 1, MT2, 120 h. An excerpt: Inhibition of HIV Replication:
A recombinant NL-RLuc proviral clone was constructed in which a section of the nef gene from NL4-3 was replaced with the Renilla Luciferase gene. This virus is fully infectious and can undergo multiple cycles of replication in cell culture. In addition, the luciferous reporter provides a simple and easy method for quantitating the extent of virus growth and consequently, the antiviral activity of test compounds. The plasmid pNLRLuc contains the proviral NL-Rluc DNA cloned into pUC18 at the PvuII site. The NL-RLuc virus was prepared by transfection of 293T cells with the plasmid pNLRLuc. Transfections were performed using the LipofectAMINE PLUS kit from Invitrogen (Carlsbad, Calif.) according to the manufacturer and the virus generated was titered in MT-2 cells. For susceptibility analyses, the titrated virus was used to infect MT-2 cells in the presence of compound, and after 5 days of incubation, cells were processed and quantitated for virus growth by the amount of expressed luciferase. Assay media was RPMI 1640 supplemented with 10% heat inactivated fetal bovine serum (FBS), 100 units/ml penicillin G/100 units/ml streptomycin, 10 mM HEPES buffer pH 7.55 and 2 mM L-glutamine. The results from at least 2 experiments were used to calculate the EC50 values. Luciferase was quantitated using the Dual Luciferase kit from Promega (Madison, Wis.). Susceptibility of viruses to compounds was determined by incubation in the presence of serial dilutions of the compound. The 50% effective concentration (EC50) was calculated by using the exponential form of the median effect equation where (Fa)=1/[1+(ED50/drug conc.)^m] (Johnson V A, Byington R T. Infectivity Assay. In Techniques in HIV Research. ed. Aldovini A, Walker BD. 71-76. New York: Stockton Press. 1990). Activity equal to A refers to a compound having an EC50<100 nM, while B and C denote compounds having an EC50 between 100 nM and 1 uM (B) or >1 uM (C).

Structures are written as SMILES. Like-named read-outs stand apart in the source and are kept apart here.

Regarding `Cc1nc(C)c([C@H](OC(C)(C)C)C(=O)O)c(-c2ccc3c(c2)CCCO3)c1-c1ccc2c(c1)CCN(Cc1ccc(F)cc1)C2` [Example 20, (S)-2-(tert-Butoxy)-2-(4-(chroman-6-yl)-5-(2-(4-fluorobenzyl)-1,2,3,4-tetrahydroisoquinolin-6-yl)-2,6-dimethylpyridin-3-yl)acetic Acid], the EC50 (read-out: Activity) is less than 0.1 µM.
In the case of `Cc1nc(C)c([C@H](OC(C)(C)C)C(=O)O)c(-c2ccc3c(c2)CCCO3)c1-c1ccc2c(c1)CCNC2` [Example 21, (S)-2-(tert-Butoxy)-2-(4-(chroman-6-yl)-2,6-dimethyl-5-(1,2,3,4-tetrahydroisoquinolin-6-yl)pyridin-3-yl)acetic acid], the EC50 was more than 1 µM (read-out: Activity) and 7.77 µM (read-out: EC50 μM).
Taken in the same sequence, the figures for `Cc1nc(C)c([C@H](OC(C)(C)C)C(=O)O)c(-c2ccc3c(c2)CCCO3)c1-c1ccc2c(c1)CCN(C)C2` [Example 22, (S)-2-(tert-Butoxy)-2-(4-(chroman-6-yl)-2,6-dimethyl-5-(2-methyl-1,2,3,4-tetrahydroisoquinolin-6-yl)pyridin-3-yl)acetic acid] were 0.1 to 1 µM and 0.628 µM.
For the compound `Cc1nc(C)c([C@H](OC(C)(C)C)C(=O)O)c(-c2ccc3c(c2)CCCO3)c1-c1ccc2c(c1)CCN(Cc1ccccc1F)C2` [Example 23, (S)-2-(tert-Butoxy)-2-(4-(chroman-6-yl)-5-(2-(2-fluorobenzyl)-1,2,3,4-tetrahydroisoquinolin-6-yl)-2,6-dimethylpyridin-3-yl)acetic Acid], under “read-out: Activity”, the EC50 was less than 0.1 µM.
In the case of `Cc1nc(C)c([C@H](OC(C)(C)C)C(=O)O)c(-c2ccc3c(c2)CCCO3)c1-c1ccc2c(c1)CCN(Cc1cccc(F)c1)C2` [Example 24, (S)-2-(tert-Butoxy)-2-(4-(chroman-6-yl)-5-(2-(3-fluorobenzyl)-1,2,3,4-tetrahydroisoquinolin-6-yl)-2,6-dimethylpyridin-3-yl)acetic Acid], for the setting “read-out: Activity”, the EC50 was less than 0.1 µM.
Same read-out and setting: next, `Cc1cccc(F)c1CN1CCc2cc(-c3c(C)nc(C)c([C@H](OC(C)(C)C)C(=O)O)c3-c3ccc4c(c3)CCCO4)ccc2C1` [Example 25, (S)-2-(tert-Butoxy)-2-(4-(chroman-6-yl)-5-(2-(2-fluoro-6-methylbenzyl)-1,2,3,4-tetrahydroisoquinolin-6-yl)-2,6-dimethylpyridin-3-yl)acetic Acid]: less than 0.1 µM; `Cc1cccc(CN2CCc3cc(-c4c(C)nc(C)c([C@H](OC(C)(C)C)C(=O)O)c4-c4ccc5c(c4)CCCO5)ccc3C2)c1F` [Example 26, (S)-2-(tert-Butoxy)-2-(4-(chroman-6-yl)-5-(2-(2-fluoro-3-methylbenzyl)-1,2,3,4-tetrahydroisoquinolin-6-yl)-2,6-dimethylpyridin-3-yl)acetic Acid]: less than 0.1 µM.
In the case of `Cc1nc(C)c([C@H](OC(C)(C)C)C(=O)O)c(-c2ccc3c(c2)CCCO3)c1-c1ccc2c(c1)CCN(Cc1ccccc1Cl)C2` [Example 27, (S)-2-(tert-Butoxy)-2-(5-(2-(2-chlorobenzyl)-1,2,3,4-tetrahydroisoquinolin-6-yl)-4-(chroman-6-yl)-2,6-dimethylpyridin-3-yl)acetic Acid], the EC50 was less than 0.1 µM (read-out: Activity) and 0.005 µM (read-out: EC50 μM).
Regarding `Cc1ccc(CN2CCc3cc(-c4c(C)nc(C)c([C@H](OC(C)(C)C)C(=O)O)c4-c4ccc5c(c4)CCCO5)ccc3C2)c(C)c1` [Example 28, (S)-2-(tert-Butoxy)-2-(4-(chroman-6-yl)-5-(2-(2,4-dimethylbenzyl)-1,2,3,4-tetrahydroisoquinolin-6-yl)-2,6-dimethylpyridin-3-yl)acetic Acid], the EC50 (read-out: Activity) is less than 0.1 µM.
Turning to `Cc1cccc(Cl)c1CN1CCc2cc(-c3c(C)nc(C)c([C@H](OC(C)(C)C)C(=O)O)c3-c3ccc4c(c3)CCCO4)ccc2C1` [Example 29, (S)-2-(tert-Butoxy)-2-(5-(2-(2-chloro-6-methylbenzyl)-1,2,3,4-tetrahydroisoquinolin-6-yl)-4-(chroman-6-yl)-2,6-dimethylpyridin-3-yl)acetic Acid], the EC50 (read-out: Activity) is less than 0.1 µM.
On the same count and under the same terms, to `Cc1nc(C)c([C@H](OC(C)(C)C)C(=O)O)c(-c2ccc3c(c2)CCCO3)c1-c1ccc2c(c1)CCN(CCc1ccccc1F)C2` [Example 30, (S)-2-(tert-Butoxy)-2-(4-(chroman-6-yl)-5-(2-(2-fluorophenethyl)-1,2,3,4-tetrahydroisoquinolin-6-yl)-2,6-dimethylpyridin-3-yl)acetic Acid] belongs less than 0.1 µM; to `Cc1nc(C)c([C@H](OC(C)(C)C)C(=O)O)c(-c2ccc3c(c2)CCCO3)c1-c1ccc2c(c1)CCN(CCCc1ccc(F)cc1)C2` [Example 31, (S)-2-(tert-Butoxy)-2-(4-(chroman-6-yl)-5-(2-(3-(4-fluorophenyl)propyl)-1,2,3,4-tetrahydroisoquinolin-6-yl)-2,6-dimethylpyridin-3-yl)acetic Acid], less than 0.1 µM; to `Cc1nc(CN(C)CC2CCOCC2)c(-c2ccc3c(c2)CCN(c2ncnc4c2cnn4C)C3)c(-c2ccc3c(c2)CCCO3)c1[C@H](OC(C)(C)C)C(=O)O` [Example 32, (S)-2-(tert-Butoxy)-2-(4-(chroman-6-yl)-2-methyl-6-((methyl((tetrahydro-2H-pyran-4-yl)methyl)amino)methyl)-5-(2-(1-methyl-1H-pyrazolo[3,4-d]pyrimidin-4-yl)-1,2,3,4-tetrahydroisoquinolin-6-yl)pyridin-3-yl)acetic Acid], 0.1 to 1 µM.
For `Cc1cc(N2CCc3cc(-c4c(CN(C)CC5CCOCC5)nc(C)c([C@H](OC(C)(C)C)C(=O)O)c4-c4ccc5c(c4)CCCO5)ccc3C2)ncn1` [Example 33, (S)-2-(tert-Butoxy)-2-(4-(chroman-6-yl)-2-methyl-6-((methyl((tetrahydro-2H-pyran-4-yl)methyl)amino)methyl)-5-(2-(6-methylpyrimidin-4-yl)-1,2,3,4-tetrahydroisoquinolin-6-yl)pyridin-3-yl)acetic Acid], the EC50 runs as follows: (read-out: Activity) 0.1 to 1 µM; (read-out: EC50 μM) 0.282 µM.
Consider `Cc1cccc(F)c1CN1CCc2cc(-c3c(CN(C)CC4CCOCC4)nc(C)c([C@H](OC(C)(C)C)C(=O)O)c3-c3ccc4c(c3)CCCO4)ccc2C1` [Example 34, (S)-2-(tert-Butoxy)-2-(4-(chroman-6-yl)-5-(2-(2-fluoro-6-methylbenzyl)-1,2,3,4-tetrahydroisoquinolin-6-yl)-2-methyl-6-((methyl((tetrahydro-2H-pyran-4-yl)methyl)amino)methyl)pyridin-3-yl)acetic Acid], for which the EC50 (read-out: Activity) is less than 0.1 µM.
On to `Cc1cccc(Cl)c1CN1CCc2cc(-c3c(CN(C)CC4CCOCC4)nc(C)c([C@H](OC(C)(C)C)C(=O)O)c3-c3ccc4c(c3)CCCO4)ccc2C1` [Example 35, (S)-2-(tert-Butoxy)-2-(5-(2-(2-chloro-6-methylbenzyl)-1,2,3,4-tetrahydroisoquinolin-6-yl)-4-(chroman-6-yl)-2-methyl-6-((methyl((tetrahydro-2H-pyran-4-yl)methyl)amino)methyl)pyridin-3-yl)acetic Acid], for which the EC50 (read-out: Activity) is less than 0.1 µM.
Take `Cc1nc(C)c([C@H](OC(C)(C)C)C(=O)O)c(-c2ccc3c(c2)C(F)(F)CCO3)c1-c1ccc(OCCc2ccc(F)cc2)cc1` [Example 36, (S)-2-(tert-Butoxy)-2-(4-(4,4-difluorochroman-6-yl)-5-(4-(4-fluorophenethoxy)phenyl)-2,6-dimethylpyridin-3-yl)acetic Acid]: the EC50 (read-out: Activity) was less than 0.1 µM.
The same measure, in the same setting: to `Cc1nc(C)c([C@H](OC(C)(C)C)C(=O)O)c(-c2ccc3c(c2)C(F)(F)CCO3)c1-c1ccc2c(c1)CCN(Cc1ccccc1F)C2` [Example 37, (S)-2-(tert-Butoxy)-2-(4-(4,4-difluorochroman-6-yl)-5-(2-(2-fluorobenzyl)-1,2,3,4-tetrahydroisoquinolin-6-yl)-2,6-dimethylpyridin-3-yl)acetic Acid] belongs less than 0.1 µM; to `Cc1nc(C)c([C@H](OC(C)(C)C)C(=O)O)c(-c2cc(F)c3c(c2C)CCCO3)c1-c1ccc2c(c1)CCN(Cc1ccccc1F)C2` [Example 38, (2S)-2-(tert-Butoxy)-2-(4-(8-fluoro-5-methylchroman-6-yl)-5-(2-(2-fluorobenzyl)-1,2,3,4-tetrahydroisoquinolin-6-yl)-2,6-dimethylpyridin-3-yl)acetic Acid], less than 0.1 µM.
`Cc1cccc(F)c1CN1CCc2cc(-c3c(C)nc(C)c([C@H](OC(C)(C)C)C(=O)O)c3-c3cc(F)c4c(c3C)CCCO4)ccc2C1` [Example 39, (2S)-2-(tert-Butoxy)-2-(4-(8-fluoro-5-methylchroman-6-yl)-5-(2-(2-fluoro-6-methylbenzyl)-1,2,3,4-tetrahydroisoquinolin-6-yl)-2,6-dimethylpyridin-3-yl)acetic Acid]: the EC50 is less than 0.1 µM (read-out: Activity) and 0.024 µM (read-out: EC50 μM).
